Source: ChEMBL document CHEMBL5537154, “Smart glypican-3-targeting peptide-chlorin e6 conjugates for targeted photodynamic therapy of hepatocellular carcinoma” (Eur J Med Chem, 2024)
Calls of active or inactive are those of the source. The rule behind the calls is not given here. Peptide text beside a SMILES is read from it.

Experiments:
[1] = Drug distribution in kidney of BALB/C nude mouse model xenografted with human HepG2 cells at 1 to 2 uM/kg, iv measured for 1 to 4 hrs by fluorescence imaging analysis; assay type: ADME, organism-based; conditions: in vivo, dose lower 1 µM/Kg, time lower 1 hrs, dose upper 2 µM/Kg, time upper 4 hrs
[2] = Drug distribution in tumor of BALB/C nude mouse model xenografted with human HepG2 cells administered intravenously measured after 2 hrs by fluorescence spectrophotometry; assay type: ADME, tissue-based, Neoplasm; conditions: in vivo, iv, dose 1-2 µM/Kg
[3] = Photostability of compound under 250 mW/cm2 light irradiation at 660 nm incubated for 10 mins by UV spectrophotometry; assay type: physicochemical; conditions: 0.66 µM
[4] = Drug distribution in heart of BALB/C nude mouse model xenografted with human HepG2 cells at 1 to 2 uM/kg, iv measured for 1 to 4 hrs by fluorescence imaging analysis; assay type: ADME, organism-based; conditions: in vivo, dose lower 1 µM/Kg, time lower 1 hrs, dose upper 2 µM/Kg, time upper 4 hrs
[5] = Toxicity in BALB/C nude mouse model xenografted with human HepG2 cells assessed as change in heart weight at 1 to 2 uM/kg, iv administered every two days for 21 days along with 250 mW/cm2 light irradiation at 660 nm for 10 mins at 1 hr post-compound administration; assay type: organism-based; conditions: in vivo, 505.17 h, dose 1-2 µM/Kg, time 505.166 hrs
[6] = Toxicity in BALB/C nude mouse model xenografted with human HepG2 cells assessed as damage in lung at 1 to 2 uM/kg, iv administered every two days for 21 days along with 250 mW/cm2 light irradiation at 660 nm for 10 mins at 1 hr post-compound administration by H and E staining based analysis; assay type: organism-based; conditions: in vivo, 505.17 h, dose 1-2 µM/Kg, time 505.166 hrs
[7] = Toxicity in BALB/C nude mouse model xenografted with human HepG2 cells assessed as change in kidney weight at 1 to 2 uM/kg, iv administered every two days for 21 days along with 250 mW/cm2 light irradiation at 660 nm for 10 mins at 1 hr post-compound administration; assay type: organism-based; conditions: in vivo, 505.17 h, dose 1-2 µM/Kg, time 505.166 hrs
[8] = Toxicity in BALB/C nude mouse model xenografted with human HepG2 cells assessed as damage in spleen at 1 to 2 uM/kg, iv administered every two days for 21 days along with 250 mW/cm2 light irradiation at 660 nm for 10 mins at 1 hr post-compound administration by H and E staining based analysis; assay type: organism-based; conditions: in vivo, 505.17 h, dose 1-2 µM/Kg, time 505.166 hrs
[9] = Toxicity in BALB/C nude mouse model xenografted with human HepG2 cells assessed as change in lung weight at 1 to 2 uM/kg, iv administered every two days for 21 days along with 250 mW/cm2 light irradiation at 660 nm for 10 mins at 1 hr post-compound administration; assay type: organism-based; conditions: in vivo, 505.17 h, dose 1-2 µM/Kg, time 505.166 hrs
[10] = tested on: HepG2; assay: Induction of apoptosis in human HepG2 cells assessed as necrotic cells at 5 uM incubated for 24 hrs followed by 10 J/cm2 of light irradiation at 660 nm measured after 24 hrs by Annexin V-FITC/PI staining based flow cytometry relative to control; assay type: functional; conditions: time 48 hrs
[11] = tested on: Huh-7; assay: Antiproliferative activity against human Huh-7 cells under dark condition by CCK8 assay; assay type: functional, cell-based
[12] = Aggregation property of compound in PBS; assay type: physicochemical; conditions: buffer
[13] = Toxicity in BALB/C nude mouse model xenografted with human HepG2 cells assessed as damage in liver at 1 to 2 uM/kg, iv administered every two days for 21 days along with 250 mW/cm2 light irradiation at 660 nm for 10 mins at 1 hr post-compound administration by H and E staining based analysis; assay type: organism-based; conditions: in vivo, 505.17 h, dose 1-2 µM/Kg, time 505.166 hrs
[14] = Drug distribution in tumor of BALB/C nude mouse model xenografted with human Huh-7 cells administered intravenously measured after 2 hrs by fluorescence spectrophotometry; assay type: ADME, tissue-based, Neoplasm; conditions: in vivo, iv, dose 1-2 µM/Kg
[15] = Antiproliferative activity against human HUVEC cells under 10 J/cm2 light irradiation at 660 nm by CCK8 assay; assay type: toxicity, cell-based
[16] = Toxicity in BALB/C nude mouse model xenografted with human HepG2 cells assessed as damage in kidney at 1 to 2 uM/kg, iv administered every two days for 21 days along with 250 mW/cm2 light irradiation at 660 nm for 10 mins at 1 hr post-compound administration by H and E staining based analysis; assay type: organism-based; conditions: in vivo, 505.17 h, dose 1-2 µM/Kg, time 505.166 hrs
[17] = Drug uptake in human MCF7 cells incubated for 2 hrs by fluorescence based assay; assay type: ADME, cell-based; conditions: mcf7, 2 h
[18] = Partition coefficient, logP of compound; assay type: physicochemical; conditions: octanol/water
[19] = Drug uptake in endoplasmic reticulum of human Huh-7 cells at 2 uM incubated for 24 hrs by ER tracker green probe based laser confocal microscopy; assay type: ADME, subcellular; conditions: huh-7, 24 h
[20] = Drug uptake in endoplasmic reticulum of human HepG2 cells assessed as pearsons co-efficient of ER tracker green-yellow signal at 2 uM incubated for 24 hrs by laser confocal microscopy; assay type: ADME, subcellular; conditions: hepg2, 24 h
[21] = Drug uptake in human Huh-7 cells at 10 uM by confocal microscopy; assay type: ADME, cell-based; conditions: huh-7, 10 µM, TDE = time-dependent effect, time 4-24 hrs
[22] = Drug distribution in liver of BALB/C nude mouse model xenografted with human HepG2 cells at 1 to 2 uM/kg, iv measured for 1 to 4 hrs by fluorescence imaging analysis; assay type: ADME, organism-based; conditions: in vivo, dose lower 1 µM/Kg, time lower 1 hrs, dose upper 2 µM/Kg, time upper 4 hrs
[23] = tested on: HeLa; assay: Antiproliferative activity against human HeLa cells under dark condition by CCK8 assay; assay type: functional, cell-based
[24] = Toxicity in BALB/C nude mouse model xenografted with human HepG2 cells assessed as damage in heart at 1 to 2 uM/kg, iv administered every two days for 21 days along with 250 mW/cm2 light irradiation at 660 nm for 10 mins at 1 hr post-compound administration by H and E staining based analysis; assay type: organism-based; conditions: in vivo, 505.17 h, dose 1-2 µM/Kg, time 505.166 hrs
[25] = tested on: HepG2; assay: Antitumor activity against human HepG2 cells xenografted in BALB/C nude mouse model assessed as decrease in Ki67 expression at 1 to 2 uM/kg, iv administered every two days for 21 days along with 250 mW/cm2 light irradiation at 660 nm for 10 mins at 1 hr post-compound administration by […] based analysis; assay type: functional, organism-based; conditions: dose 1-2 µM/Kg, time 505.166 hrs
[26] = tested on: HepG2; assay: Induction of apoptosis in human HepG2 cells assessed as early apoptotic cells at 2.5 uM incubated for 24 hrs followed by 10 J/cm2 of light irradiation at 660 nm measured after 24 hrs by Annexin V-FITC/PI staining based flow cytometry relative to control; assay type: functional; conditions: time 48 hrs
[27] = tested on: HepG2; assay: Induction of apoptosis in human HepG2 cells assessed as late apoptotic cells at 5 uM incubated for 24 hrs followed by 10 J/cm2 of light irradiation at 660 nm measured after 24 hrs by Annexin V-FITC/PI staining based flow cytometry relative to control; assay type: functional; conditions: time 48 hrs
[28] = Drug uptake in lysosome of human HepG2 cells assessed as pearsons co-efficient of lyso tracker green DND-26-yellow signal at 2 uM incubated for 24 hrs by laser confocal microscopy; assay type: ADME, subcellular; conditions: hepg2, 24 h
[29] = […] assessed as decrease in fluorescence intensity of DMA; assay type: functional
[30] = tested on: HepG2; assay: Induction of apoptosis in human HepG2 cells assessed as necrotic cells under dark condition at 5 uM incubated for 24 hrs by Annexin V-FITC/PI staining based flow cytometry relative to control; assay type: functional
[31] = tested on: HepG2; assay: Induction of ROS generation in human HepG2 cells at 10 uM incubated for 24 hrs by DCFH-DA probe based flow cytometry; assay type: functional, cell-based
[32] = tested on: MCF7; assay: Antitumor activity against human MCF7 cells xenografted in BALB/C nude mouse model assessed as decrease in tumor growth at 1 to 2 uM/kg, iv administered every two days for 21 days along with 250 mW/cm2 light irradiation at 660 nm for 10 mins at 1 hr post-compound administration; assay type: functional, organism-based; conditions: dose 1-2 µM/Kg, time 505.166 hrs

Compound: C=Cc1c(C)c2cc3nc(c(CC(=O)O)c4[nH]c(cc5nc(cc1[nH]2)C(C)=C5CC)c(C)c4C(=O)NCCCC(=O)N[C@@H](CC(=O)O)C(=O)N[C@@H](Cc1cnc[nH]1)C(=O)N[C@@H](CC(C)C)C(=O)N[C@@H](C)C(=O)N[C@@H](CO)C(=O)N[C@@H](CC(C)C)C(=O)N[C@@H](Cc1c[nH]c2ccccc12)C(=O)N[C@@H](Cc1c[nH]c2ccccc12)C(=O)NCC(=O)N[C@H](C(=O)N[C@@H](CCC(=O)O)C(=O)N[C@@H](CC(C)C)C(=O)O)[C@@H](C)O)[C@@H](CCC(=O)O)[C@@H]3C (HELM PEPTIDE1{[C=Cc1c(C)c2cc3nc(c(CC(=O)O)c4[nH]c(cc5nc(cc1[nH]2)C(C)=C5CC)c(C)c4C(=O)[*:2])[C@@H](CCC(=O)O)[C@@H]3C].[O=C(CCCN[*:1])[*:2]].D.H.L.A.S.L.W.W.G.T.E.L}$$$$V2.0)
- Drug uptake [1]: Not Active
- Drug uptake [2]: Dose-Dependent Effect
- Stability [3]: Stable
- Drug uptake [4]: Not Active
- Activity [5]: Non-Toxic
- Activity [6]: Non-Toxic
- Activity [7]: Non-Toxic
- Activity [8]: Non-Toxic
- Activity [9]: Non-Toxic
- Activity [10]: 15.3%
- IC50 [11]: > 100 µM
- Activity [12]: Active
- Activity [13]: Non-Toxic
- Drug uptake [14]: Active
- IC50 [15]: > 10 µM
- Activity [16]: Non-Toxic
- Drug uptake [17]: Not Active
- logP [18]: 1.8
- Drug uptake [19]: Active
- Activity [20]: 0.65
- Drug uptake [21]: Tde
- Drug uptake [22]: Not Active
- IC50 [23]: > 100 µM
- Activity [24]: Non-Toxic
- Activity [25]: Active
- Activity [26]: 0.1%
- Activity [27]: 9.3%
- Activity [28]: 0.79
- Activity [29]: Active
- Activity [30]: 0.1%
- Activity [31]: inactive
- Activity [32]: Active
